Test results: patent publication US8822449B2, “Substituted aminoindanes and analogs thereof, and the pharmaceutical use thereof” (Sanofi, priority 2008, dated 2014)

The compounds below were run against T1, sodium-proton exchanger of subtype 3 (NHE3) (Homo sapiens, UniProt P48764) (assay: Recovery of intracellular pH (pHi) after acidification in LAP1 cells stably expressing NHE3 (BCECF fluorescence, FLIPR)). Details: LAP1 cells stably expressing NHE3; pH recovery after acidification; range 1 is % inhibition at 10 μM; read-out: Activity range (inhibitory effect on NHE3).
T1 construct: expressed in transfected cells
T1 sequence (P48764 26-834): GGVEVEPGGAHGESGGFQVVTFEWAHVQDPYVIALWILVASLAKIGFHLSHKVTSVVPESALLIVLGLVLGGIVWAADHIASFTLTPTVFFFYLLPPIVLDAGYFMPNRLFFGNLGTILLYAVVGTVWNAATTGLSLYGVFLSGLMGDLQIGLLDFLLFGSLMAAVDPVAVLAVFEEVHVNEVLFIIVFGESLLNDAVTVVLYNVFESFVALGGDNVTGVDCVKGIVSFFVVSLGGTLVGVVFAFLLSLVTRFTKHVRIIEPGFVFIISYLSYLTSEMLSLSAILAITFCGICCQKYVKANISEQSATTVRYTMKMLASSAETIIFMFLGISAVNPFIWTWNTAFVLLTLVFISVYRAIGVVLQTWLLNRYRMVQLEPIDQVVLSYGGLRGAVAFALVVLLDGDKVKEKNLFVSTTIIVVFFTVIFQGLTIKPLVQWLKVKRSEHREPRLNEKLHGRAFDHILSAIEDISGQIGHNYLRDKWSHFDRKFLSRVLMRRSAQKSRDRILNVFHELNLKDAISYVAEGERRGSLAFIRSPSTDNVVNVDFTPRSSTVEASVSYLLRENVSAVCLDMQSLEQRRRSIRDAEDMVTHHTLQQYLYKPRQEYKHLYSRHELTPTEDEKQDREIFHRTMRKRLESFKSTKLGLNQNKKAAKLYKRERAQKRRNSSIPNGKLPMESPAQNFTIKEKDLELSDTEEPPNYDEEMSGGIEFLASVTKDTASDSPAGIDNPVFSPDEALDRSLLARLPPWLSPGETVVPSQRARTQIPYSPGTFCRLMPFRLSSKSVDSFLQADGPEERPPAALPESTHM
Assay type: cell-based

Row | IC50 [nM] | inhibition at 10 µM [%] | SMILES
1 | < 1000 |  | N#Cc1ccc(O[C@@H]2c3ccccc3C[C@H]2N2C[C@H]3CNC[C@H]3C2)c(Cl)c1 (racemic) [Example 445, 3-chloro-4-[rac-trans-(1,2)-2-(hexahydropyrrolo[3,4-c]pyrrol-2-yl)indan-1-yloxy]benzonitrile]
2 |  | 20 to 50 | Fc1ccc(O[C@H]2c3ccccc3CC[C@@H]2N2CCOCC2)c2ncccc12 (racemic) [Example 586, 5-fluoro-8-(rac-trans-(1,2)-2-morpholin-4-yl-1,2,3,4-tetrahydronaphthalen-1-yloxy)quinoline]
3 |  | 20 to 50 | Cc1noc(C)c1-c1cc(F)ccc1O[C@H]1c2ccccc2C[C@@H]1N1CCCC1 [Example 503, 4-[5-fluoro-2-(trans-(1S,2S)-2-pyrrolidin-1-ylindan-1-yloxy)phenyl]-3,5-dimethylisoxazole]
4 | < 1000 |  | O=C1COCC(=O)N1c1ccc(O[C@H]2c3cc(Cl)cc(Cl)c3C[C@@H]2N2CC[C@@H](O)C2)c(F)c1 [Example 560, 4-{4-[(1S,2S)-4,6-dichloro-2-((R)-3-hydroxypyrrolidin-1-yl)indan-1-yloxy]-3-fluorophenyl}morpholine-3,5-dione]
5 | 1000 to 10000 |  | Cc1c(Cl)cccc1O[C@@H]1c2ccccc2C[C@H]1N1C[C@H]2CNC[C@H]2C1 (racemic) [Example 6, 2-[rac-trans-(1,2)-1-(3-chloro-2-methylphenoxy)indan-2-yl]octahydropyrrolo[3,4-c]pyrrole]
6 |  | 20 to 50 | N[C@H]1CCCN([C@H]2CCc3ccccc3[C@@H]2Oc2ccc(NC(=O)OCc3ccccc3)cc2)C1 (racemic) [Example 239, {4-[rac-trans-(1,2)-2-((S)-3-aminopiperidin-1-yl)-1,2,3,4-tetrahydronaphthalen-1-yloxy]phenyl}carbamic acid benzyl ester]
7 | 1000 to 10000 |  | CN1CCC2CN([C@H]3Cc4c(Cl)cc(Cl)cc4[C@@H]3Oc3ccc(S(C)(=O)=O)cc3)CC21 (single isomer, unassigned) [Example 582]
8 |  | 20 to 50 | FC(F)(F)c1cnccc1O[C@H]1c2ccccc2C[C@@H]1CN1CCCC1 (racemic) [Example 462, 4-(2-pyrrolidin-1-ylmethylindan-1-yloxy)-3-trifluoromethylpyridine]
9 | 1000 to 10000 |  | CCCC1(N)CCCN([C@H]2Cc3c(Cl)cc(Cl)cc3[C@@H]2Oc2ccc(S(C)(=O)=O)cc2)C1 (stereo partly drawn) [Example 300, 1-[trans-(1S,2S)-4,6-dichloro-1-(4-methanesulfonylphenoxy)indan-2-yl]-3-propylpiperidin-3-ylamine]
10 |  | 20 to 50 | Cc1cc(O[C@H]2c3cc(F)cc(Cl)c3C[C@@H]2N2CCCC2)ccc1S(C)(=O)=O (racemic) [Example 282, 1-[rac-trans-(1,2)-4-chloro-6-fluoro-1-(4-methanesulfonyl-3-methylphenoxy)indan-2-yl]pyrrolidine]
11 | 1000 to 10000 |  | Nc1ccc2c(O[C@H]3c4ccccc4CC[C@@H]3N3CCC[C@H](N)C3)cccc2c1 (racemic) [Example 189, (S)-1-[rac-trans-(1,2)-1-(6-aminonaphthalen-1-yloxy)-1,2,3,4-tetrahydronaphthalen-2-yl]piperidin-3-ylamine]
12 | 1000 to 10000 |  | O=C1COC(=O)N1c1ccc(O[C@H]2c3cc(Cl)cc(Cl)c3C[C@@H]2N2CC[C@@H](O)C2)cc1 [Example 427, 3-{4-[(1S,2S)-4,6-dichloro-2-((R)-3-hydroxypyrrolidin-1-yl)indan-1-yloxy]phenyl}oxazolidine-2,4-dione]
13 | < 1000 |  | O=C1COC(=O)N1c1ccc(O[C@H]2c3cc(Cl)cc(Cl)c3C[C@@H]2N2CC[C@@H](O)C2)c(Cl)c1 [Example 424, 3-{3-chloro-4-[(1S,2S)-4,6-dichloro-2-((R)-3-hydroxypyrrolidin-1-yl)indan-1-yloxy]phenyl}oxazolidine-2,4-dione]
14 | 1000 to 10000 |  | c1ccc2c(c1)C[C@@H](N1C[C@H]3CNC[C@H]3C1)[C@@H]2Oc1ccc2ccncc2c1 (racemic) [Example 589, 7-[rac-trans-(1,2)-2-(Hexahydropyrrolo[3,4-c]pyrrol-2-yl)indan-1-yloxy]isoquinoline]

The next lines start with the compound.

Row | SMILES | IC50 [nM] | inhibition at 10 µM [%]
15 | c1cc(O[C@@H]2c3ccccc3C[C@H]2N2C[C@H]3CNC[C@H]3C2)cc(N2CCCCC2)c1 (racemic) [Example 15, 2-[rac-trans-(1,2)-1-(3-piperidin-1-ylphenoxy)indan-2-yl]octahydropyrrolo[3,4-c]pyrrole] | 1000 to 10000 | 
16 | Cc1nnc(C)n1-c1ccc(O[C@H]2c3cc(Cl)cc(Cl)c3C[C@@H]2N2CCC[C@@H](O)C2)cc1 [Example 132, (R)-1-{trans-(1S,2S)-4,6-dichloro-1-[4-(3,5-dimethyl-[1,2,4]triazol-4-yl)phenoxy]indan-2-yl}piperidin-3-ol] | < 1000 | 
17 | CC(=O)Nc1ccc(S[C@H]2c3cc(Cl)cc(Cl)c3C[C@@H]2N2CC[C@@H](O)C2)cc1 [Example 699, N-{4-[(1S,2S)-4,6-dichloro-2-((R)-3-hydroxypyrrolidin-1-yl)indan-1-ylsulfanyl]phenyl}acetamide] | 1000 to 10000 | 
18 | N#Cc1ccc(O[C@H]2c3cc(Cl)cc(Cl)c3C[C@@H]2N2CCNCC2)c(F)c1 [Example 456, 4-((1S,2S)-4,6-dichloro-2-piperazin-1-ylindan-1-yloxy)-3-fluorobenzonitrile] | < 1000 | 
19 | Cc1nnc(C)n1-c1ccc(F)c(O[C@H]2c3cc(Cl)cc(Cl)c3C[C@@H]2N2CC[C@@H](O)C2)c1 [Example 114, (R)-1-{(1S,2S)-4,6-dichloro-1-[5-(3,5-dimethyl-[1,2,4]triazol-4-yl)-2-fluorophenoxy]indan-2-yl}pyrrolidin-3-ol] | 1000 to 10000 | 
20 | O=C1CCC(=O)N1c1ccc(O[C@H]2c3cc(Cl)cc(Cl)c3C[C@@H]2N2CC[C@@H](O)C2)cc1 [Example 334, 1-{4-[trans-(1S,2S)-4,6-dichloro-2-((R)-3-hydroxypyrrolidin-1-yl)indan-1-yloxy]phenyl}pyrrolidine-2,5-dione] | < 1000 | 
21 | CN1CC(=O)N(c2ccc(Cl)c(O[C@H]3c4cc(Cl)cc(F)c4C[C@@H]3N3CC[C@@H](O)C3)c2)C1=O [Example 435, 3-{4-chloro-3-[(1S,2S)-6-chloro-4-fluoro-2-((R)-3-hydroxypyrrolidin-1-yl)indan-1-yloxy]phenyl}-1-methylimidazolidine-2,4-dione] | 1000 to 10000 | 
22 | Brc1ccc(O[C@@H]2c3ccccc3C[C@H]2N2C[C@H]3CNC[C@H]3C2)c(-c2cc[nH]n2)c1 (racemic) [Example 20, 2-{rac-trans-(1,2)-1-[4-bromo-2-(1H-pyrazol-3-yl)phenoxy]indan-2-yl}octahydropyrrolo[3,4-c]pyrrole] | 1000 to 10000 | 
23 | N[C@@H]1CCCN([C@H]2CCc3ccccc3[C@@H]2Oc2ccc(NC(=O)OCc3ccccc3)cc2)C1 (racemic) [Example 237, {4-[rac-trans-(1,2)-2-((R)-3-aminopiperidin-1-yl)-1,2,3,4-tetrahydronaphthalen-1-yloxy]phenyl}carbamic acid benzyl ester] |  | 20 to 50
24 | CCc1nc(C)cn1-c1ccc(O[C@H]2c3cc(Cl)cc(Cl)c3C[C@@H]2N2CC[C@@H](O)C2)cc1 [Example 712, (R)-1-{trans-(1S,2S)-4,6-Dichloro-1-[4-(2-ethyl-4-methyl-imidazol-1-yl)-phenoxy]-indan-2-yl}-pyrrolidin-3-ol] | 1000 to 10000 | 
25 | COCCc1ccc(O[C@@H]2c3ccccc3C[C@H]2N2CCC(CN)C2)cc1 (mixture of isomers) [Example 598, C-(1-{rac-trans-(1,2)-1-[4-(2-methoxyethyl)phenoxy]indan-2-yl}pyrrolidin-3-yl)methylamine] | 1000 to 10000 | 
26 | NS(=O)(=O)c1ccc(O[C@H]2c3ccccc3C[C@@H]2CN2CCCC2)c(Cl)c1 (racemic) [Example 442, 3-chloro-4-(2-pyrrolidin-1-ylmethylindan-1-yloxy)benzenesulfonamide] | 1000 to 10000 | 
27 | CS(=O)(=O)c1ccc(O[C@H]2c3cc(Cl)cc(Cl)c3C[C@@H]2N2CCC[C@H]2CO)cc1 [Example 228, {(S)-1-[trans-(1S,2S)-4,6-dichloro-1-(4-methanesulfonylphenoxy)indan-2-yl]pyrrolidin-2-yl}methanol] | 1000 to 10000 | 
28 | COc1cc(Cl)cc(O[C@@H]2c3ccccc3C[C@H]2N2CCC(CN)C2)c1 (mixture of isomers) [Example 613, C-{1-[rac-trans-(1,2)-1-(3-chloro-5-methoxyphenoxy)indan-2-yl]pyrrolidin-3-yl}methylamine] | 1000 to 10000 | 
29 | NCC1CCN([C@@H]2Cc3ccccc3[C@H]2Oc2ccc(N3CCNCC3)cc2)CC1 (racemic) [Example 619, C-{1-[rac-trans-(1,2)-1-(4-piperazin-1-ylphenoxy)indan-2-yl]piperidin-4-yl}methylamine] | 1000 to 10000 | 
30 | N[C@H]1CCCN([C@H]2CCc3ccccc3[C@@H]2Oc2ccc3cc[nH]c3c2)C1 (racemic) [Example 148, (S)-1-[rac-trans-(1,2)-1-(1H-indol-6-yloxy)-1,2,3,4-tetrahydronaphthalen-2-yl]piperidin-3-ylamine] |  | 20 to 50
